Data from paper PMC11500415, “Chemical inhibition of stomatal differentiation by perturbation of the master-regulatory bHLH heterodimer via an ACT-Like domain” (Nature Communications, 2024).
“And” between values parts separate entries of the source, which are not always exact repeats. Equal entries are not always repeated. Where two headings read alike, the source gives them in different places.

Experiments:
Assay in all cases: BLI direct binding
Design in all cases: species or system A. thaliana
[1] = biological target: T1, MUTE bHLH domain (Arabidopsis thaliana, UniProt Q9M8K6); conditions: for Response: BLI, GST-MUTE_bHLH on Anti-GST sensor, unit assumed
T1 construct: MUTEΔC (1-114); made in house; host or cells: E. coli BL21
T1 sequence (Q9M8K6 1-114): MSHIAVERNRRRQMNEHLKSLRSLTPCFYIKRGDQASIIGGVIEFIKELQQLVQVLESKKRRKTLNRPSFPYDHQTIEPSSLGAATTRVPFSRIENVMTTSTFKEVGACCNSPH
Description: (§1) A. thaliana SCRM (1-494), ΔNSPCH (98-364), MUTE (1-202), ΔNFAMA (190-414), MUTEΔC (1-114), MUTER133A_R134A, MUTEE162A_E163A, MUTER133A_R134A_E162A_E163A, SCRM-ACTL (405-494), MUTE-ACTL (114-202), SPCH-ACTL (285-364), FAMA-ACTL (306-414), MUTE_ACTLR133A_R134A, MUTE_ACTLE162A_E163A, MUTE_ACTLR133A_R134A_E162A_E163A were cloned into pGEX-4T-1 vector with an N-terminal GST tag and a thrombin cleavage sequence. For protein expression, the constructs were transformed into E. coli strain BL21. For each transformant, a single colony was selected and incubated in 10 ml LB liquid media. The overnight-incubated E. coli suspensions were transferred to 1 L LB medium and incubated at 37 °C for around 2 h until the OD600 reached 0.4–0.6. The isopropyl β-D-1-thiogalactopyranoside ([…] of final concentration) was added to the cultures and the strains were incubated at 22 °C for a further 18 h. GST-fused proteins were purified using glutathione agarose resin. The soluble portion of the cell lysate was loaded onto a GST-Sepharose column. Nonspecifically bound proteins were removed by washing the column with 20 mM Tris pH 8.0, 200 mM NaCl. The bound GST-fused protein was eluted with 10 mm glutathione and 20 mM Tris pH 8.0, 200 mM NaCl. The GST-fused proteins were exchanged with phosphate-buffered saline buffer, and then the solution was treated with 50 μg of thrombin for 10–12 h at 16 ^οC. The GST portion of the protein was cleaved during thrombin digestion, and then the whole solution was reloaded onto the glutathione S-transferase column to obtain pure protein. The purified proteins were further purified by gel filtration on a Superdex-200 (GE) column using fast protein liquid chromatography and phosphate buffer (pH 7.2) as the eluent. The purity of the protein was checked by SDS-PAGE. For detailed lists of oligo DNA and plasmid information, see Supplementary Tables 5, 6, respectively.
(§2) The binding affinities of SCRM to MUTE / MUTER133A_R134A / MUTEE162A_E163A / MUTER133A_R134A_E162A_E163A in presence and absence of Stomidazolone (3) and its analogues (AYSJ1059 (5) and AYSJ1061 (6)), and Stomidazolone / AYSJ1059 / AYSJ1061 interactions with GST-tagged SCRM, MUTE, SPCH, FAMA, MUTE ΔACTL, MUTE_ACTL, SCRM_ACTL, SPCH_ACTL and FAMA_ACTL, MUTER133A_134A, MUTEE162A_E163A, MUTER133A_R134A_E162A_E163A were measured using the Octet Red96 system (ForteBio, Pall Life Sciences) following the manufacturer’s protocols. The optical probes coated with anti-GST were first loaded with 500 nM GST tagged proteins before kinetic binding analyses. The experiment was performed in 96-well plates maintained at 30 °C. Each well was loaded with 200 μL reaction volume for the experiment. The binding buffer used in these experiments contained 1× PBS supplemented with 2% DMSO, 0.02% Tween20. The concentrations of the Stomidazolone as the analyte in the binding buffer were 100, 50, 25, 12.5, 6.25, 3.12, and 1.56 μM. There was no binding of the analytes to the unloaded probes as shown by the control wells. Binding kinetics to all seven concentrations of the analytes were measured simultaneously using default parameters on the instrument. The data were analyzed using the Octet data analysis software. The association and dissociation curves were fit with the 1:1 homogeneous ligand model. The kobs (observed rate constant) values were used to calculate Kd, with steady-state analysis of the direct binding. See Supplementary Table 3 for details.

[2] = biological target: T2, FAMA (Arabidopsis thaliana, UniProt Q56YJ8)
T2 construct: ΔNFAMA (190-414); made in house; host or cells: E. coli BL21
Description: as §1, §2

[3] = biological target: T3, FAMA_ACTL (Arabidopsis thaliana, UniProt Q56YJ8)
T3 construct: FAMA-ACTL (306-414); GST (N, cleaved yes); made in house; host or cells: E. coli BL21
Description: as §1, §2

[4] = biological target: T4, SCRM_ACTL (Arabidopsis thaliana, UniProt Q9LSE2)
T4 construct: SCRM-ACTL (405-494); GST (N, cleaved yes); made in house; host or cells: E. coli BL21
T4 sequence (Q9LSE2 405-494): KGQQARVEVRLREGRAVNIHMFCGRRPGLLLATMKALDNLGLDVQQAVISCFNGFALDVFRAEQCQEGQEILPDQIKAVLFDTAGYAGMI
Description: as §1, §2

[5] = biological target: T5, SPCH_ACTL (Arabidopsis thaliana, UniProt Q700C7)
T5 construct: SPCH-ACTL (285-364); GST (N, cleaved yes); made in house; host or cells: E. coli BL21
Description: as §1, §2

[6] = FAMA loaded on Anti-GST sensor, fit per sensor, Stomid Conc. (mM) 200-3.12, rep-1, rep-2
[7] = FAMA, Conc. (mM) 3.12, rep-1, rep-2
[8] = FAMA, Conc. (mM) 6.25, rep-1, rep-2
[9] = FAMA, Conc. (mM) 12.5, rep-1, rep-2
[10] = FAMA, Conc. (mM) 25, rep-1, rep-2
[11] = FAMA, Conc. (mM) 50, rep-1, rep-2
[12] = FAMA, Conc. (mM) 100, rep-1, rep-2
[13] = FAMA, Conc. (mM) 200, rep-1, rep-2
[14] = BLI steady state, read-out: KD (SS)

T2 sequence (Q56YJ8 190-414): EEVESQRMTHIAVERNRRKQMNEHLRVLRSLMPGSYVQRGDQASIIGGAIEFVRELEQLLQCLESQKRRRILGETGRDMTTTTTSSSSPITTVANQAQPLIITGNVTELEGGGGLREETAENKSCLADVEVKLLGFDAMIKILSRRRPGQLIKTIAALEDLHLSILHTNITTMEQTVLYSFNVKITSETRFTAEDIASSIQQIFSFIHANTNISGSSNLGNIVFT
T5 sequence (Q700C7 285-364): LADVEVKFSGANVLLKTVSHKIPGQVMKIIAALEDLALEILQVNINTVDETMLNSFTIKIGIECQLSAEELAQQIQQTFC
T3 sequence (Q56YJ8 306-414): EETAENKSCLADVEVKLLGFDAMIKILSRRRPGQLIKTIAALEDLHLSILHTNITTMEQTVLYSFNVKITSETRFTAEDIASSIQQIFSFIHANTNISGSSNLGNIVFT

Question: Which “binding to MUTE bHLH versus ACTL domain (in words)” value ([1]; BLI (Fig. 6h)) does the source give for `O=C1C(c2ccccc2)=NC(NS(=O)(=O)c2ccccc2)(c2ccccc2)N1S(=O)(=O)c1ccccc1` (centres unmarked) [Stomidazolone] here?
Answer: Its value is “specifically binds to the ACTL domain”.

Question: What about the Response ([1]; Stomid Conc. (nM) 6.25) of the same molecule?
Answer: Its Response is 0.0607 nm.

Question: What about the Response ([1]; Stomid Conc. (nM) 12.5) of the same molecule?
Answer: The Response was 0.0612 nm.

Question: And the Response ([1]; Stomid Conc. (nM) 25)?
Answer: Its Response is 0.0712 nm.

Question: What about the Response ([1]; Stomid Conc. (nM) 50) of the same molecule?
Answer: The Response was 0.0833 nm.

Question: And the Response ([1]; Stomid Conc. (nM) 100)?
Answer: The Response was 0.0921 nm.

Question: What about the Response ([1]; Stomid Conc. (nM) 200) of the same molecule?
Answer: Its Response is 0.106 nm.

Question: What about the Kd ([2]; BLI steady state, FAMA, read-out: KD (SS)) of the same molecule?
Answer: Its Kd is 0.0782 ± 0.0065 mM.

Question: What about the “kdis” value [2, 6] of the same molecule?
Answer: Its value is 0.177 s⁻¹ and 0.176 s⁻¹ and 0.175 s⁻¹ and 0.178 s⁻¹ and 0.171 s⁻¹ and 0.18 s⁻¹.

Question: What about the “kon” value [2, 6] of the same molecule?
Answer: The value was 2080 M⁻¹ s⁻¹.

Question: And the Kd ([2]; FAMA loaded on Anti-GST sensor, fit per sensor, Stomid Conc. (mM) 200-3.12, rep-1, rep-2, read-out: KD)?
Answer: Its Kd is 0.0867 mM and 0.0859 mM and 0.0882 mM and 0.0891 mM and 0.0863 mM and 0.0866 mM and 0.0851 mM and 0.0817 mM and 0.0856 mM and 0.0903 mM and 0.0845 mM.

Question: And the RMax [2, 7]?
Answer: Its RMax is 0.095 and 0.0512.

Question: What about the “Req/Rmax(%)” value [2, 7] of the same molecule?
Answer: The value was 100%.

Question: What about the Response [2, 7] of the same molecule?
Answer: Its Response is 0.0912 and 0.0512.

Question: And the “kobs” value [2, 7]?
Answer: The value was 0.00577 s⁻¹ and 0.0035 s⁻¹.

Question: And the RMax [2, 8]?
Answer: Its RMax is 0.108 and 0.0812.

Question: And the “Req/Rmax(%)” value [2, 8]?
Answer: Its value is 97% and 100%.

Question: What about the Response [2, 8] of the same molecule?
Answer: Its Response is 0.1071 and 0.0812.

Question: What about the RMax [2, 9] of the same molecule?
Answer: Its RMax is 0.124 and 0.1621.

Question: What about the Response [2, 9] of the same molecule?
Answer: Its Response is 0.1223 and 0.1621.

Question: What about the RMax [2, 10] of the same molecule?
Answer: Its RMax is 0.165 and 0.1913.

Question: And the Response [2, 10]?
Answer: The Response was 0.1623 and 0.1913.

Question: And the RMax [2, 11]?
Answer: The RMax was 0.251 and 0.2843.

Question: What about the “Req/Rmax(%)” value [2, 11] of the same molecule?
Answer: Its value is 89%.

Question: And the Response [2, 11]?
Answer: Its Response is 0.2461 and 0.2843.

Question: What about the RMax [2, 12] of the same molecule?
Answer: The RMax was 0.435 and 0.3712.

Question: What about the Response [2, 12] of the same molecule?
Answer: The Response was 0.4312 and 0.3712.

Question: What about the RMax [2, 13] of the same molecule?
Answer: The RMax was 0.553 and 0.5072.

Question: And the “Req/Rmax(%)” value [2, 13]?
Answer: Its value is 98%.

Question: What about the Response [2, 13] of the same molecule?
Answer: The Response was 0.5523 and 0.5072.

Question: And the koff ([2]; read-out: kdis(1/s), FAMA loaded on Anti-GST sensor, fit per sensor, Stomid Conc. (mM) 200-3.12, rep-1, rep-2)?
Answer: The koff was 0.179 s⁻¹.

Question: And the kon ([2]; read-out: kon(1/Ms), FAMA loaded on Anti-GST sensor, fit per sensor, Stomid Conc. (mM) 200-3.12, rep-1, rep-2)?
Answer: The kon was 2070 M⁻¹ s⁻¹.

Question: What about the Kd [3, 14] of the same molecule?
Answer: Its Kd is 105 ± 13.8 µM.

Question: And the Kd ([3]; BLI, read-out: KD)?
Answer: Its Kd is 95.2 ± 3.5 µM.

Question: What about the Kd [4, 14] of the same molecule?
Answer: Its Kd is 76 ± 6.8 µM.

Question: And the Kd ([4]; BLI, read-out: KD)?
Answer: The Kd was 78.2 ± 1.2 µM.

Question: What about the Kd [5, 14] of the same molecule?
Answer: The Kd was 95.2 ± 3.8 µM.

Question: What about the Kd ([5]; BLI, read-out: KD) of the same molecule?
Answer: The Kd was 88.1 ± 1.1 µM.
